Earlier results in patent US4431807A, “4-Methyl-5-(unsubstituted and substituted phenoxy)-6-methoxy-8-(aminoalkylamino)quinolines” (priority 1981, dated 1984).
Like-named read-outs stand apart in the source and are kept apart here.

Tests used:
[1] = test system: Plasmodium cynomolgi; conditions: prior art compounds; cited from earlier work
[2] = test system: Plasmodium berghei; conditions: cited from earlier work; for Δ MST / Cures: 5 mice, Table I

## COc1cc(NC(C)CCCN)c2ncccc2c1Oc1ccc(F)cc1 (stereo not shown) [5-(4-Fluorophenoxy)Primaquine, 5-(4-fluorophenoxy)primaquine]
[1]
  Radical curative activity relative to primaquine: no more active than primaquine
[2]; 80 mg/kg
  Δ MST: 7.0 days
[2]; 160 mg/kg
  Δ MST: 9 days
[2]; 320 mg/kg
  Cures: 5C
[2]; 640 mg/kg
  Cures: 5C
[2]; 320 and 640 mg/kg
  Suppressive activity: active and non-toxic
[2]; prior art compound
  Suppressive activity relative to mefloquine: distinctly inferior
